Entries after “also recorded” stand apart in the source; their conditions may differ.
Experiments:
[1] = system: protein expression of the corresponding knockdown genes in A549 cells; assay: Western blot of knockdown genes after lipid-mediated siRNA delivery into A549 cells; assay type: cell-based, human; settings: LAMP2, XPN2, Ssu72, CPSF4 or β-actin siRNA 400 nM; reverse evaporation method; FIG. 82
Description: 3.3.1 MRC-5 cell (pulmonary embryonic fibroblast), and A549 cell (human lung adenocarcinoma cell) were cultured to logarithmic growth phase, and then plated into 12-well plates at a cell density of 6×10^5/1 mL medium/well; MRC-5 cells were cultured in Eagle's MEM medium (MEM, Gibco); A549 cells were cultured in Ham's F-12 medium (HyClone); followed by incubation overnight at 37° C., and the follow-up experiments were performed after the cells were attached to the walls.
4) Lipid nucleic acid mixture: the mixture of lipid and nucleic acid prepared from the step 2 were added into cells and mixed, and the final concentration of nucleic acid was 400 nM.
3.3.3 After 24 hours of treatment, the cells were stimulated with the stimulant (1 μg/mL poly (I:C) (P1530, Sigma-Aldrich) as double-stranded RNA viruses mimetics) or 3 ng/mL transforming growth factor TGFβ1 (Pepro Tech)). […]

[2] = system: A549 cells; assay: Digital PCR (ddPCR) detection of the efficiency of nucleic acid delivery by lipid; assay type: cell-based, human
Description: 2.2 Experimental method: the total cellular RNA was collected and extracted by TRIzol lysis buffer according to the above methods, and reverse transcribed to cDNA using High capacity cRNA Reverse Transcription Kit, and the cDNA from different groups was subject to digital PCR reaction. Refering to the QX200 Droplet Reader and QuantaSoft Software manual for the protocols, the results were analyzed using QuantaSoft software.
2.2 Experimental method: total RNA was collected and extracted by TRIzol lysis buffer according to the above method, and reverse transcribed to cDNA using High capacity cRNA Reverse Transcription Kit, and the cDNA from different groups was subjected to digital PCR reaction. Refer to the QX200 Droplet Reader and QuantaSoft Software manual for the protocols; the results were analyzed using QuantaSoft software.
2.2 Experimental method: Total RNA was collected and extracted by TRIzol lysis buffer according to the above method, and reverse transcribed to cDNA using TaqMan™ MicroRNA Reverse Transcription KitHigh, and the cDNA from different groups was subjected to digital PCR reaction. Refer to the QX200 Droplet Reader and QuantaSoft Software manual for the protocols; the results were analyzed using QuantaSoft software.
2.2 Experimental method: Total RNA was collected and extracted by TRIzol lysis buffer according to the above method, and reversed to cDNA using High capacity cRNA Reverse Transcription Kit, and the cDNA from different groups was subjected to digital PCR reaction. Refer to the QX200 Droplet Reader and QuantaSoft Software manual for the protocols; the results were analyzed using QuantaSoft software.

[3] = system: A549 cells; assay: Flow cytometry detection of the efficiency of nucleic acid delivery by lipid; assay type: cell-based, human; settings: PGY-sRNA-6-FAM, boiling method
Description: Experimental materials: A549 cells (purchased from the Cell Center of the Chinese Academy of Medical Sciences), FAM-sRNA (purchased from Ribobio Biotechnology Co., Ltd.), lipid No. 41, Accuri® C6 instrument (purchased from BD, USA).
Experimental methods: PGY-sRNA-6-FAM was dissolved in 100 μl water, mixed with 4 μl lipid, and prepared by boiling method. Then the mixture was dropped into A549 cells, and after 6 hours of co-incubation, the samples were collected for detection as follows: firstly wash three times with PBS, then digest with trypsin for 3 minutes and remove trypsin, wash with PBS again and then blow down the cells. The detection was performed using Accuri® C6 instrument.
Experimental Method: PGY-sRNA-6-FAM was dissolved in 100 μl water, and mixed with 4 μl lipid, and prepared into lipid-sRNA mixture by boiling method. Then, the mixture was dropped into A549 cells, and after 6 hours of co-incubation, the samples were collected and washed three times with PBS, then digested with trypsin into single cells, washed with re-suspended with PBS and then blown down for Accuri® C6 instrument detection.
Experimental Method: FAM-sRNA was dissolved in 100 μl water, and mixed with 4 μl lipid, prepared by boiling method. Then, the lipid-sRNA mixture was dropped into A549 cells, and after 6 hours of co-incubation, the samples were collected and washed three times with PBS, then digested into single cells with trypsin, re-suspended with PBS and then blown down for Accuri® C6 instrument detection.

[4] = In vivo delivery of single-stranded sRNA by single lipid via gavage (blood, stomach, small intestine, liver); parameters: species or system C57 mice; settings: 10 μl lipid, heating method
Excerpt: Tissues sampled: live/stomach/small intestine.

[5] = 4 μl lipid, 6 hours of co-incubation

CCCCCCCCCCCCCCCCCCC[C@@H](O)[C@@H](N)CO [No. 41, Sphinganine (d22:0)]
protein knockdown effect (Western blot) [1]: significantly higher than the inhibitory effect of HJT-sRNA-m7 mediated by RNAiMAX
delivery of HJT-sRNA-m7 dsRNA (ddPCR) ([2]; boiling method, 6 hours): could effectively deliver HJT-sRNA-m7 dsRNA into A549 cells; also recorded: the boiling method had better effects than reverse evaporation method
delivery of HJT-sRNA-m7 dsRNA (ddPCR) ([2]; reverse evaporation method, 6 hours (No. 39: 6 hours, 12 hours)): could effectively deliver HJT-sRNA-m7 dsRNA into A549 cells
efficiency in delivering PGY-sRNA-6 double-stranded RNA (flow cytometry) [3, 5]: 96.7%
efficiency in delivering PGY-sRNA-6 single-stranded RNA (flow cytometry) [3, 5]: 94.1%
efficiency of nucleic acid delivery by flow cytometry, in words ([3]; 6 hours): could efficiently deliver single-stranded and double-stranded nucleic acids into A549 cells
entry of single-stranded small RNA into mouse blood (RT-qPCR) ([4]; 1 nmol each sRNA (PGY-sRNA-23/-26/-32), 6 hours or 12 hours after administration): could promote the entry of small RNA into the blood, protecting it from degradation in the blood; also recorded: could effectively deliver sRNA single-stranded nucleic acid into the mouse blood via oral administration to protect sRNA from degradation; also recorded: the delivery effect was better than POPC and Lipofectamine RNAiMAX
entry of single-stranded small RNA into mouse stomach (RT-qPCR) ([4]; 1 nmol each sRNA, FIG. 109): could promote the entry of small RNA into the stomach cells, protecting it from degradation in the stomach; also recorded: could effectively deliver sRNA single-stranded nucleic acid into the mouse stomach via oral administration to protect sRNA from degradation
entry of single-stranded small RNA into mouse small intestine (RT-qPCR) ([4]; 1 nmol each sRNA, FIG. 110): could promote the entry of small RNA into small intestinal cells, protecting it from degradation in the small intestine; also recorded: could effectively deliver sRNA single-stranded nucleic acid into the mouse small intestine via oral administration to protect sRNA from degradation
entry of single-stranded small RNA into mouse liver (RT-qPCR) ([4]; 1 nmol each sRNA, FIG. 111): could promote the entry of small RNA into the liver, protecting it from degradation in the liver; also recorded: could effectively deliver sRNA single-stranded nucleic acid into the mouse liver via oral administration to protect sRNA from degradation
